Activity calls are given as the source filed them. No cut-off for these calls is given here.
Assays:
PANC-1 [1] = test: Induction of apoptosis in human PANC-1 cells assessed as viable cells at 10 uM incubated for 48 hrs by Annexin V-FITC/PI staining based flow cytometry (reference value: 91.64 %); format: functional; settings: read-out: Activity
PANC-1 [2] = test: Induction of cell cycle arrest in human PANC-1 cells assessed as accumulation at S phase at 1.2 uM incubated for 24 hrs by PI staining based flow cytometry (reference value: 38.94 %); format: functional
PANC-1 [3] = test: Induction of apoptosis in human PANC-1 cells assessed as necrotic cells at 10 uM incubated for 48 hrs by Annexin V-FITC/PI staining based flow cytometry (reference value: 3.09 %); format: functional
PANC-1 [4] = test: Induction of DNA damage in human PANC-1 cells assessed as decrease in RAD51 level at 2 uM in presence of JQ1 by Western blot analysis; format: functional, cell-based
PANC-1 [5] = test: Induction of cell cycle arrest in human PANC-1 cells assessed as accumulation at G2 phase at 0.6 uM incubated for 24 hrs by PI staining based flow cytometry (reference value: 9.36 %); format: functional
[6] = Toxicity in BALB/c mouse xenografted with human PANC-1 cells assessed as drug tolerance at 40 mg/kg, ip for 4 weeks administered for 5 days consecutively and 2 days without treatment on every week in presence of JQ1; format: organism-based; settings: in vivo, 672 h
PANC-1 [7] = test: Induction of apoptosis in human PANC-1 cells assessed as late apoptotic cells at 1.2 uM incubated for 48 hrs by Annexin V-FITC/PI staining based flow cytometry (reference value: 3.87 %); format: functional
PANC-1 [8] = test: Induction of apoptosis in human PANC-1 cells assessed as early apoptotic cells at 2.5 uM incubated for 48 hrs by Annexin V-FITC/PI staining based flow cytometry (reference value: 1.41 %); format: functional
PANC-1 [9] = test: Anti-migration activity in human PANC-1 cells at 2 uM in presence of JQ1 incubated for 24 hrs by wound healing assay; format: functional, cell-based
[10] = Toxicity in BALB/c mouse xenografted with human PANC-1 cells assessed as pathological changes in heart at 40 mg/kg, ip for 4 weeks administered for 5 days consecutively and 2 days without treatment on every week by H and E staining based analysis; format: organism-based; settings: in vivo, 672 h
PANC-1 [11] = test: Inhibition of colony formation in human PANC-1 cells at 2 uM incubated for 14 days by crystal violet staining based analysis; format: functional, cell-based; settings: time 14.0 day
[12] = Toxicity in BALB/c mouse xenografted with human PANC-1 cells assessed as animal morbidity at 40 mg/kg, ip for 4 weeks administered for 5 days consecutively and 2 days without treatment on every week; format: organism-based; settings: in vivo, 672 h
PANC-1 [13] = test: Antitumor activity against human PANC-1 cells xenografted in BALB/c mouse at 40 mg/kg, ip for 4 weeks administered for 5 days consecutively and 2 days without treatment on every week in presence of JQ1 relative to control; format: functional; settings: PANC-1, 672 h, read-out: TGI
PANC-1 [14] = test: Induction of cell cycle arrest in human PANC-1 cells assessed as accumulation at S phase at 10 uM incubated for 24 hrs by PI staining based flow cytometry (reference value: 38.94 %); format: functional
PANC-1 [15] = test: Induction of cell cycle arrest in human PANC-1 cells assessed as accumulation at G1 phase at 0.6 uM incubated for 24 hrs by PI staining based flow cytometry (reference value: 51.70 %); format: functional
PANC-1 [16] = test: Induction of apoptosis in human PANC-1 cells assessed as necrotic cells at 0.6 uM incubated for 48 hrs by Annexin V-FITC/PI staining based flow cytometry (reference value: 3.09 %); format: functional
PANC-1 [17] = test: Induction of apoptosis in human PANC-1 cells assessed as early apoptotic cells at 5 uM incubated for 48 hrs by Annexin V-FITC/PI staining based flow cytometry (reference value: 1.41 %); format: functional
PANC-1 [18] = test: Antitumor activity against human PANC-1 cells xenografted in BALB/c mouse assessed as reduction in tumor growth at 40 mg/kg, ip for 4 weeks administered for 5 days consecutively and 2 days without treatment on every week; format: functional, organism-based
PANC-1 [19] = test: Induction of cell cycle arrest in human PANC-1 cells assessed as accumulation at G2 phase at 1.2 uM incubated for 24 hrs by PI staining based flow cytometry (reference value: 9.36 %); format: functional
PANC-1 [20] = test: Induction of apoptosis in human PANC-1 cells assessed as early apoptotic cells at 10 uM incubated for 48 hrs by Annexin V-FITC/PI staining based flow cytometry (reference value: 1.41 %); format: functional
PANC-1 [21] = test: Induction of apoptosis in human PANC-1 cells assessed as early apoptotic cells at 1.2 uM incubated for 48 hrs by Annexin V-FITC/PI staining based flow cytometry (reference value: 1.41 %); format: functional
[22] = Toxicity in BALB/c mouse xenografted with human PANC-1 cells assessed as pathological changes in liver at 40 mg/kg, ip for 4 weeks administered for 5 days consecutively and 2 days without treatment on every week by H and E staining based analysis; format: organism-based; settings: in vivo, 672 h
[23] = Toxicity in BALB/c mouse xenografted with human PANC-1 cells assessed as drug tolerance at 40 mg/kg, ip for 4 weeks administered for 5 days consecutively and 2 days without treatment on every week; format: organism-based; settings: in vivo, 672 h
[24] = Toxicity in BALB/c mouse xenografted with human PANC-1 cells assessed as pathological changes in lung at 40 mg/kg, ip for 4 weeks administered for 5 days consecutively and 2 days without treatment on every week by H and E staining based analysis; format: organism-based; settings: in vivo, 672 h
PANC-1 [25] = test: Induction of apoptosis in human PANC-1 cells assessed as necrotic cells at 5 uM incubated for 48 hrs by Annexin V-FITC/PI staining based flow cytometry (reference value: 3.09 %); format: functional
PANC-1 [26] = test: Induction of apoptosis in human PANC-1 cells assessed as late apoptotic cells at 2.5 uM incubated for 48 hrs by Annexin V-FITC/PI staining based flow cytometry (reference value: 3.87 %); format: functional
PANC-1 [27] = test: Induction of cell cycle arrest in human PANC-1 cells assessed as accumulation at G2/M phase incubated for 24 hrs by PI staining based flow cytometry; format: functional; settings: dose 0.6-2 µM
PANC-1 [28] = test: Induction of cell cycle arrest in human PANC-1 cells assessed as accumulation at G1 phase at 2 uM incubated for 24 hrs in presence of JQ1 by PI staining based flow cytometry (reference value: 51.70 %); format: functional
[29] = Toxicity in BALB/c mouse xenografted with human PANC-1 cells assessed as pathological changes in liver at 40 mg/kg, ip for 4 weeks administered for 5 days consecutively and 2 days without treatment on every week in presence of JQ1 by H and E staining based analysis; format: organism-based; settings: in vivo, 672 h
[30] = Toxicity in BALB/c mouse xenografted with human PANC-1 cells assessed as pathological changes in lung at 40 mg/kg, ip for 4 weeks administered for 5 days consecutively and 2 days without treatment on every week in presence of JQ1 by H and E staining based analysis; format: organism-based; settings: in vivo, 672 h
PANC-1 [31] = test: Induction of cell cycle arrest in human PANC-1 cells assessed as accumulation at G2 phase at 2 uM incubated for 24 hrs in presence of JQ1 by PI staining based flow cytometry (reference value: 9.36 %); format: functional
[32] = Toxicity in BALB/c mouse xenografted with human PANC-1 cells assessed as body weight loss at 40 mg/kg, ip for 4 weeks administered for 5 days consecutively and 2 days without treatment on every week in presence of JQ1; format: organism-based; settings: in vivo, 672 h

| SMILES | viability at 10 µM (PANC-1 [1]) [%] | Activity (PANC-1 [2]) [%] | Activity (PANC-1 [3]) [%] | Activity (PANC-1 [4]) | Activity (PANC-1 [5]) [%] | Activity [6] | Activity (PANC-1 [7]) [%] | Activity (PANC-1 [8]) [%] | Activity (PANC-1 [9]) | Activity [10] | inhibition (PANC-1 [11]) | Activity [12] | inhibition in vivo at 40 mg/kg (PANC-1 [13]) [%] | Activity (PANC-1 [14]) [%] | Activity (PANC-1 [15]) [%] | Activity (PANC-1 [16]) [%] | Activity (PANC-1 [17]) [%] | Activity (PANC-1 [18]) | Activity (PANC-1 [19]) [%] | Activity (PANC-1 [20]) [%] | other results |
| --- | --- | --- | --- | --- | --- | --- | --- | --- | --- | --- | --- | --- | --- | --- | --- | --- | --- | --- | --- | --- | --- |
| O=C(c1cc(Cc2n[nH]c(=O)c3ccccc23)ccc1F)N1CCN(C(=O)C2CC2)CC1 [OLAPARIB] | 87.3 | 41 | 3.35 | Active | 10.68 | Non-toxic | 3.98 | 2.76 | Active | Non-toxic | Active | Non-toxic | 80.7 | 44.95 | 46.78 | 3.23 | 4.21 | Active | 12.41 | 3.98 | Activity (PANC-1 [21]): 2.88%; Activity [22]: Non-toxic; Activity [23]: Non-toxic; Activity [24]: Non-toxic; Activity (PANC-1 [25]): 2.91%; Activity (PANC-1 [26]): 4.53%; Activity (PANC-1 [27]): Dose-dependent-effect; Activity (PANC-1 [28]): 58.42%; Activity [29]: Non-toxic; Activity [30]: Non-toxic; Activity (PANC-1 [31]): 15.74%; Activity [32]: Toxic |
| O=C1CCC(N2C(=O)c3cccc(NC(=O)CNCCCCCCCCCCC(=O)N4CCN(C(=O)c5cc(Cc6n[nH]c(=O)c7ccccc67)ccc5F)CC4)c3C2=O)C(=O)N1 (centres undefined) | 86.3 | 42.94 | 3.83 | Active | 10.52 | Non-toxic | 3.71 | 4.13 | Active | Non-toxic | Active | Non-toxic | ≤ 98.5 | 40.91 | 45.34 | 3.52 | 4.76 | Active | 11.34 | 4.38 | Activity (PANC-1 [21]): 3.8%; Activity [22]: Non-toxic; Activity [23]: Non-toxic; Activity [24]: Non-toxic; Activity (PANC-1 [25]): 4.28%; Activity (PANC-1 [26]): 4.42%; Activity (PANC-1 [27]): Dose-dependent-effect; Activity (PANC-1 [28]): 50.25%; Activity [29]: Non-toxic; Activity [30]: Non-toxic; Activity (PANC-1 [31]): 22.93%; Activity [32]: Non-toxic |
